From patent US9090600B2, “Fungicidal 4-substituted-3-{phenyl[(heterocyclylmethoxy)imino]methyl}-1,2,4-oxadizol-5(4H)-one derivatives” (BAYER INTELLECTUAL PROPERTY GMBH, priority 2011, dated 2015)
Marks after values point to notes of the source that are not given here.

How the values were obtained:
Plasmopara viticola = assay: Plasmopara test (grapevines)/preventive; type: in vivo; details: preventive spray, 10 ppm of active ingredient, evaluated 6 days after inoculation
Method: Solvent: 24.5 parts by weight of acetone • 24.5 parts by weight of dimethylacetamide
Emulsifier: 1 part by weight of alkylaryl polyglycol ether
To produce a suitable preparation of active compound, 1 part by weight of active compound is mixed with the stated amounts of solvent and emulsifier, and the concentrate is diluted with water to the desired concentration.
To test for preventive activity, young plants are sprayed with the preparation of active compound at the stated rate of application. After the spray coating has dried on, the plants are inoculated with an aqueous spore suspension of Plasmopara viticola and then remain for 1 day in an incubation cabinet at approximately 20° C. and a relative atmospheric humidity of 100%. The plant is subsequently placed for 4 days in a greenhouse at approximately 21° C. and a relative atmospheric humidity of approximately 90%. The plants are then misted and placed for 1 day in an incubation cabinet.
The test is evaluated 6 days after the inoculation. 0% means an efficacy which corresponds to that of the untreated control, while an efficacy of 100% means that no disease is observed.

[1] = pH 2.7
Phytophthora infestans = type: in vivo; details: tomato plants, spray, 500 ppm, grading 5 days after contamination

SMILES | Eff. % (Plasmopara viticola) [%] | LogP [1] | Eff. % (Phytophthora infestans) [%]
COc1cccc(OC(C)C(=O)Nc2nc(CO/N=C(/c3ccccc3)c3noc(=O)n3C)cs2)c1 (stereo not shown) [Example 50] | 95 | 3.71 [a] | 94
COc1cccc(OCC(=O)Nc2cccc(CO/N=C(/c3ccccc3)c3noc(=O)n3C)n2)c1 [Example 51] | 91 | 3.73 [a] | –
Cn1c(/C(=N\OCc2cccc(NC(=O)c3ccccc3)n2)c2ccccc2)noc1=O [Example 54] | 93 | 3.51 [a] | 100
Cn1c(/C(=N\OCc2cccc(NC(=O)CCC(C)(C)C)n2)c2ccccc2)noc1=O [Example 59] | 98 | 4.15 [a] | 100
CC(OC(=O)Nc1cccc(CO/N=C(/c2ccccc2)c2noc(=O)n2C)n1)c1ccccc1 (stereo not shown) [Example 68] | 90 | 4.23 [a] | 100
Cc1cccc(OC(C)C(=O)Nc2nc(CO/N=C(/c3ccccc3)c3noc(=O)n3C)cs2)c1 (stereo not shown) [Example 80] | 98 | 3.99 [a] | 98
Cn1c(/C(=N\OCc2cccc(NC(=O)C3Cc4ccccc4CO3)n2)c2ccccc2)noc1=O (stereo not shown) [Example 85] | 73 | 4.17 [a] | 99
Cn1c(/C(=N\OCc2csc(NC(=O)COc3cccc(F)c3)n2)c2ccccc2)noc1=O [Example 100] | 74 | 3.58 [a] | –
CC(C)CCC(=O)Nc1cccc(CO/N=C(/c2ccccc2)c2noc(=O)n2C)n1 [Example 102] | 91 | 3.85 [a] | 100
Cn1c(C(=NOCc2cccc(NCC3CCCCC3)n2)c2ccccc2)noc1=O [Example 116] | 93 | 3.02 [a] | –
CCn1c(/C(=N\OCc2cccc(NC(=O)OC(C)(C)C)n2)c2ccccc2)noc1=O [Example 152] | 70 | 4.26 [a] | 95
Cn1c(/C(=N\OCc2cccc(NC(=O)CCC3(C)CC3)n2)c2ccccc2)noc1=O [Example 166] | 95 | 3.87 [a] | 99
Cn1c(/C(=N\OCc2csc(NC(=O)COC3CCCC3)n2)c2ccccc2)noc1=O [Example 195] | 95 | 3.73 [a] | –
Cn1c(/C(=N\OCc2cccc(NC(=O)CC3CCCCC3)n2)c2ccccc2)noc1=O [Example 208] | 91 | 4.26 [a] | 100
CCCCOCC(=O)Nc1cccc(CO/N=C(/c2ccccc2)c2noc(=O)n2C)n1 [Example 240] | 80 | 3.97 [a] | 100
CCCCC(C)C(=O)Nc1cccc(CON=C(c2ccccc2)c2noc(=O)n2C)n1 (stereo not shown) [Example 244] | 86 | 4.2 [a] | 99
Cn1c(C(=NOCc2cccc(NC(=O)c3ccc(Cl)cc3)n2)c2ccccc2)noc1=O [Example 245] | 93 | 4.01 [a] | –
Cn1c(/C(=N\OCc2cccc(NC(=O)c3cccc(I)c3)n2)c2ccccc2)noc1=O [Example 281] | 97 | 4.31 [a] | 97
CCCCC(CC)C(=O)Nc1cccc(CO/N=C(/c2ccccc2)c2noc(=O)n2C)n1 (stereo not shown) [Example 284] | 79 | 4.49 [a] | 95
CC1c2ccccc2COC1C(=O)Nc1cccc(CO/N=C(/c2ccccc2)c2noc(=O)n2C)n1 (stereo not shown) [Example 291] | 77 | 4.35 [a] | 100
Cc1ccc(OCC(=O)Nc2cccc(CO/N=C(/c3ccccc3)c3noc(=O)n3C)n2)cc1 [Example 296] | 74 | 4.07 [a] | –
C#CCCCC(=O)Nc1cccc(CO/N=C(/c2ccccc2)c2noc(=O)n2C)n1 [Example 302] | 92 | 3.17 [a] | 100
Cn1c(/C(=N\OCc2cccc(NC(=O)C(F)(F)Oc3ccccc3)n2)c2ccccc2)noc1=O [Example 307] | 98 | 4.08 [a] | –
Cc1ccc(OC(C)C(=O)Nc2nc(CO/N=C(/c3ccccc3)c3noc(=O)n3C)cs2)cc1 (stereo not shown) [Example 312] | 95 | 4.02 [a] | 94
CCCCC(C)(C)C(=O)Nc1cccc(CO/N=C(/c2ccccc2)c2noc(=O)n2C)n1 [Example 316] | 84 | 4.63 [a] | –
COc1cccc(OCC(=O)Nc2nc(CO/N=C(/c3ccccc3)c3noc(=O)n3C)cs2)c1 [Example 318] | 93 | 3.53 [a] | 99
CC(Oc1cccc(Cl)c1)C(=O)Nc1nc(CO/N=C(/c2ccccc2)c2noc(=O)n2C)cs1 (stereo not shown) [Example 321] | 82 | 4.1 [a] | 97

SMILES | Eff. % (Plasmopara viticola) [%] | LogP [1] | Eff. % (Phytophthora infestans) [%]
Cc1ccc(C)c(C(=O)Nc2cccc(CO/N=C(/c3ccccc3)c3noc(=O)n3C)n2)c1 [Example 327] | 95 | 4.06 [a] | 100
Cn1c(/C(=N\OCc2cccc(NC(=O)Cc3ccccc3Br)n2)c2ccccc2)noc1=O [Example 335] | – | 3.85 [a] | 99
Cc1ccc(C)c(C(=O)Nc2nc(CO/N=C(/c3ccccc3)c3noc(=O)n3C)cs2)c1 [Example 336] | 91 | 3.94 [a] | 99
CCCC(C)COC(=O)Nc1cccc(CO/N=C(/c2ccccc2)c2noc(=O)n2C)n1 (stereo not shown) [Example 337] | – | 4.83 [a] | 99
Cc1ccc(C(=O)Nc2cccc(CO/N=C(/c3ccccc3)c3noc(=O)n3C)n2)o1 [Example 345] | – | 3.46 [a] | 99
Cn1c(/C(=N\OCc2cccc(NC(=O)CCc3ccc(Cl)cc3)n2)c2ccccc2)noc1=O [Example 346] | – | 4.17 [a] | 97
Cn1c(/C(=N\OCc2cccc(NC(=O)C(F)(F)C(F)(F)C(F)(F)F)n2)c2ccccc2)noc1=O [Example 348] | – | 4.17 [a] | 100
CCC(C)COC(=O)Nc1cccc(CO/N=C(/c2ccccc2)c2noc(=O)n2C)n1 (stereo not shown) [Example 350] | – | 4.44 [a] | 98
Cn1c(/C(=N\OCc2cccc(NC(=O)c3ccc(Oc4ccccc4)cc3)n2)c2ccccc2)noc1=O [Example 357] | – | 4.58 [a] | 92
CCCCC(=O)Nc1cccc(CO/N=C(/c2cccc(OC)c2)c2noc(=O)n2C)n1 [Example 358] | – | 3.55 [a] | 100
CCCCOC(=O)Nc1cccc(CO/N=C(/c2cccc(OC)c2)c2noc(=O)n2C)n1 [Example 361] | – | 4.06 [a] | 90
COc1cccc(/C(=N/OCc2cccc(NC(=O)CC(C)C)n2)c2noc(=O)n2C)c1 [Example 362] | – | 3.46 [a] | 71
C=CCCOC(=O)Nc1cccc(CO/N=C(/c2ccccc2)c2noc(=O)n2C)n1 [Example 363] | – | 3.71 [a] | 99
CC(=O)OC(C)(C)C(=O)Nc1cccc(CO/N=C(/c2ccccc2)c2noc(=O)n2C)n1 [Example 367] | – | 3.15 [a] | 100
Cc1ccc(CCOC(=O)Nc2cccc(CO/N=C(/c3ccccc3)c3noc(=O)n3C)n2)cc1 [Example 369] | – | 4.53 [a] | 70
Cn1c(/C(=N\OCc2cccc(NC(=O)OCC(C)(C)C)n2)c2ccccc2)noc1=O [Example 372] | – | 4.36 [a] | 100
Cn1c(/C(=N\OCc2cccc(NC(=O)CCCCCBr)n2)c2ccccc2)noc1=O [Example 374] | – | 3.85 [a] | 100
Cc1ccc(CC(=O)Nc2cccc(CO/N=C(/c3ccccc3)c3noc(=O)n3C)n2)cc1 [Example 375] | – | 3.85 [a] | 97
Cn1c(/C(=N\OCc2cccc(NC(=O)CCCc3ccccc3)n2)c2ccccc2)noc1=O [Example 377] | – | 4.04 [a] | 99
Cn1c(/C(=N\OCc2cccc(NC(=O)Cc3ccc4ccccc4c3)n2)c2ccccc2)noc1=O [Example 381] | – | 4.12 [a] | 75
Cc1cccc(/C(=N/OCc2cccc(NC(=O)C(C)(C)C)n2)c2noc(=O)n2C)c1 [Example 387] | – | 3.85 [a] | 100
Cn1c(/C(=N\OCc2cccc(NC(=O)C3CCCC3)n2)c2ccccc2)noc1=O [Example 388] | – | 3.62 [a] | 100
C=CCCOC(=O)Nc1nc(CO/N=C(/c2ccccc2)c2noc(=O)n2C)cs1 [Example 394] | – | 3.44 [a] | 90
COc1ccc(C(=NOCc2cccc(NC(=O)OC(C)(C)C)n2)c2noc(=O)n2C)cc1 [Example 396] | – | 3.96 [a] | 73
CCn1c(/C(=N\OCc2cccc(NC(=O)CCc3ccccc3)n2)c2ccccc2)noc1=O [Example 403] | – | 4.01 [a] | 100
COc1cccc(C(=NOCc2cccc(NC(=O)C(C)(C)C)n2)c2noc(=O)n2C)c1 [Example 407] | – | 3.55 [a] | 95
